We go through 65 molecules from patent publication US6908942B2, “6-amino-2,2-dimethyl-3,4,6-trisubstituted benzopyran derivatives and their construction by parallel synthesis on solid-phase” (Korea Research Institute of Chemical Technology, priority 2002, dated 2005).

This experiment deals with lipid peroxidation induced by iron. Description: Inhibitory effect on iron-induced lipid peroxidation in rat brain homogenate (MDA measurement, N-methyl-2-phenylindole, Bioxytech LPO-586 Kit). The settings on record: FeCl2 400 μM, 30 min at 37° C., decrease of MDA vs DMSO control, absorption at 586 nm. In kind it is biochemical. How it is done: The inhibitory effect of the present compounds on lipid peroxidation induced by iron was evaluated as follows:
Rat brain was homogenized in Krebs buffer (15 mM HEPES, 10 mM glucose, 140 mM NaCl, 3.6 mM KCl, 1.5 mM CaCl2, 1.4 mM KH2PO4 and 0.7 mM MgCl, pH 7.4) and centrifuged at 12,000 rpm to obtain the supernatant serving as a raw material of lipid. To the brain homogenates, FeCl^2 was added to give a final concentration of 400 μM and allowed to stand for 30 min at 37° C. for promoting oxidation. Each of the compounds to be tested was added to give a concentration of 12.5 μM and a control group was solely added with dimethylsulfoxide (DMSO).
When iron is added to brain homogenates, oxidation is promoted to increase the amount of malondialdehyde (MDA) as lipid peroxidation product. Therefore, in this Example, the level of lipid peroxidation was evaluated according to MDA measurement method. In general MDA measurement, the test sample is reacted with TBA (2-thiobarbituric acid) and the absorbance at 530 nm was measured. However, since such process includes a boiling step, it is unsuitable for dealing with test samples in large quantity. Therefore, in this Example, N-methyl-2-phenylindole was used as a color developing reagent in place of TBA so as to avoid boiling step. […] The inhibitory effect on lipid peroxidation of test compounds was evaluated by calculating the decreased level of MDA in percentage based on the amount of MDA in the control group. For the test compounds showing more than 80% inhibitory effect, the concentration-lipid peroxidation inhibition curves were plotted with reference to the decrease rate of MDA amount based on the amount of MDA in the control group and their IC50 values was calculated through least linear regression analysis.
In addition, the representative antioxidants commercialized such as Promethazine, Trolox, Probucol and N-propyl gallate were examined in terms of 50% inhibition concentration (IC50) according to the above procedure and the results are shown in Table 4.
`CCCCOC1c2cc(NC)ccc2OC(C)(C)C1OCc1ccccc1` (centres unmarked) [Compound 5-49] registered an IC50 of 2.85 µM. This lies in the single-digit micromolar range.
`CCCCOC1c2cc(NC)ccc2OC(C)(C)C1OCc1ccc(F)cc1` (centres unmarked) [Compound 5-50] came in with an IC50 of 4.9 µM. Compared with the last molecule, the IC50 is about 1.7-fold higher.
For `CCCCOC1c2cc(NC)ccc2OC(C)(C)C1OCc1ccc(C(C)(C)C)cc1` (centres unmarked) [Compound 5-51] the value was 5.2 µM; for `CCCCOC1c2cc(NC)ccc2OC(C)(C)C1OCc1cccc(F)c1` (centres unmarked) [Compound 5-52], 0.98 µM.
`CCCCOC1c2cc(NC)ccc2OC(C)(C)C1OCc1ccccc1C` (centres unmarked) [Compound 5-53]: the IC50 was determined as 1.8 µM.
For `CCCCOC1c2cc(NC)ccc2OC(C)(C)C1OCc1cccc(Cl)c1` (centres unmarked) [Compound 5-55] the value was 2.61 µM.
Take `CCCCOC1c2cc(NC)ccc2OC(C)(C)C1OCc1ccc(Br)cc1F` (centres unmarked) [Compound 5-57]: half-maximal inhibition (IC50) was put at 4.37 µM.
With `C=CCOC1C(OCCCC)c2cc(NC)ccc2OC1(C)C` (centres unmarked) [Compound 5-63], half-maximal inhibition (IC50) required 2.46 µM.
`C#CCOC1C(OCCCC)c2cc(NC)ccc2OC1(C)C` (centres unmarked) [Compound 5-64] yielded an IC50 of 2.57 µM. This IC50 and that of the molecule before are within 1.5-fold of each other.
The value for `CNc1ccc2c(c1)C(OCc1ccccc1)C(OCc1ccccc1)C(C)(C)O2` (centres unmarked) [Compound 5-65] was 1.13 µM.
The value for `CNc1ccc2c(c1)C(OCc1ccccc1)C(OCc1ccc(C(C)(C)C)cc1)C(C)(C)O2` (centres unmarked) [Compound 5-67] was 6.06 µM; that for `CCOC1c2cc(NC)ccc2OC(C)(C)C1OCc1cccc(F)c1` (centres unmarked) [Compound 5-68] was 1.39 µM; that for `CNc1ccc2c(c1)C(OCc1ccccc1)C(OCc1ccccc1C)C(C)(C)O2` (centres unmarked) [Compound 5-69] was 1.42 µM.
`CNc1ccc2c(c1)C(OCc1ccccc1)C(OCc1ccccc1Cl)C(C)(C)O2` (centres unmarked) [Compound 5-70] yielded a 50% inhibitory concentration (IC50) of 1.15 µM.
As to `CNc1ccc2c(c1)C(OCc1ccccc1)C(OCc1cccc(Cl)c1)C(C)(C)O2` (centres unmarked) [Compound 5-71], the IC50 worked out at 1.7 µM.
Turning to `CNc1ccc2c(c1)C(OCc1ccccc1)C(OCc1ccc(C)cc1)C(C)(C)O2` (centres unmarked) [Compound 5-72], 7.39 µM corresponded to half-maximal inhibition (IC50). This IC50 is about 4.3-fold higher than that of the molecule before.
For `CNc1ccc2c(c1)C(OCc1ccccc1)C(OCc1ccc(Br)cc1F)C(C)(C)O2` (centres unmarked) [Compound 5-73], the IC50 came to 2.85 µM. This IC50 lies about 2.6-fold lower than the previous one.
`CNc1ccc2c(c1)C(OCc1ccccc1)C(OCc1ccc3ccccc3c1)C(C)(C)O2` (centres unmarked) [Compound 5-74] came in with an IC50 of 3.6 µM.
The value for `CCCCCOC1C(OCc2ccccc2)c2cc(NC)ccc2OC1(C)C` (centres unmarked) [Compound 5-77] was 2.5 µM; that for `C/C=C/COC1C(OCc2ccccc2)c2cc(NC)ccc2OC1(C)C` (centres unmarked) [Compound 5-78] was 1.14 µM; that for `C=CCOC1C(OCc2ccccc2)c2cc(NC)ccc2OC1(C)C` (centres unmarked) [Compound 5-79] was 0.79 µM.
The value for `C#CCOC1C(OCc2ccccc2)c2cc(NC)ccc2OC1(C)C` (centres unmarked) [Compound 5-80] was 1.08 µM; that for `CNc1ccc2c(c1)C(OCCC1CCCCC1)C(OCc1ccccc1)C(C)(C)O2` (centres unmarked) [Compound 5-97] was 5.34 µM.
For `CNc1ccc2c(c1)C(OCCC1CCCCC1)C(OCc1ccc(F)cc1)C(C)(C)O2` (centres unmarked) [Compound 5-98] the value was 5.3 µM; for `CNc1ccc2c(c1)C(OCCC1CCCCC1)C(OCc1cccc(F)c1)C(C)(C)O2` (centres unmarked) [Compound 5-100], 3.89 µM.
As to `CNc1ccc2c(c1)C(OCCC1CCCCC1)C(OCc1ccccc1C)C(C)(C)O2` (centres unmarked) [Compound 5-101], the IC50 came to 6.03 µM.
Turning to `CNc1ccc2c(c1)C(OCCC1CCCCC1)C(OCc1cccc(Cl)c1)C(C)(C)O2` (centres unmarked) [Compound 5-103], the IC50 amounted to 5.1 µM. This IC50 and that of the molecule before are within 1.5-fold of each other.
`CNc1ccc2c(c1)C(OCCC1CCCCC1)C(OCc1ccc(C)cc1)C(C)(C)O2` (centres unmarked) [Compound 5-104] yielded an IC50 of 4.01 µM. The IC50 values of the last two molecules are within 1.5-fold of each other.
In turn, `CNc1ccc2c(c1)C(OCCC1CCCCC1)C(OCc1ccc3ccccc3c1)C(C)(C)O2` (centres unmarked) [Compound 5-106] registered a concentration for half-maximal inhibition (IC50) of 5.51 µM. This IC50 and that of the molecule before are within 1.5-fold of each other.
Molecule `CC1(C)Oc2ccc(NCc3ccccc3)cc2C(OCc2ccccc2)C1OCc1ccccc1` (centres unmarked) [Compound 5-289] had an IC50 of 1.32 µM. Compared with the last molecule, the IC50 is about 4.2-fold lower.
For `CC1(C)Oc2ccc(NCc3ccccc3)cc2C(OCc2ccccc2)C1OCc1ccc(F)cc1` (centres unmarked) [Compound 5-290] the value was 3.02 µM; for `CC1(C)Oc2ccc(NCc3ccccc3)cc2C(OCc2ccccc2)C1OCc1cccc(F)c1` (centres unmarked) [Compound 5-292], 3.25 µM; for `Cc1ccccc1COC1C(OCc2ccccc2)c2cc(NCc3ccccc3)ccc2OC1(C)C` (centres unmarked) [Compound 5-293], 3.68 µM.
For `CC1(C)Oc2ccc(NCc3ccccc3)cc2C(OCc2ccccc2)C1OCc1cccc(Cl)c1` (centres unmarked) [Compound 5-295] the value was 1.29 µM; for `Cc1ccc(COC2C(OCc3ccccc3)c3cc(NCc4ccccc4)ccc3OC2(C)C)cc1` (centres unmarked) [Compound 5-296], 5.85 µM.
`CC1(C)Oc2ccc(NCc3ccccc3)cc2C(OCc2ccccc2)C1OCc1ccc2ccccc2c1` (centres unmarked) [Compound 5-298] registered an IC50 of 6.07 µM.
The value for `COC1C(OCc2ccccc2)c2cc(NCc3ccccc3)ccc2OC1(C)C` (centres unmarked) [Compound 5-300] was 1.36 µM.
The value for `CC1(C)Oc2ccc(NCc3ccccc3)cc2C(OCCc2ccccc2)C1OCc1ccc(F)cc1` (centres unmarked) [Compound 5-306] was 4.12 µM; that for `CC(C)(C)c1ccc(COC2C(OCCc3ccccc3)c3cc(NCc4ccccc4)ccc3OC2(C)C)cc1` (centres unmarked) [Compound 5-307] was 3.55 µM; that for `CC1(C)Oc2ccc(NCc3ccccc3)cc2C(OCCc2ccccc2)C1OCc1cccc(F)c1` (centres unmarked) [Compound 5-308] was 4.75 µM.
`Cc1ccccc1COC1C(OCCc2ccccc2)c2cc(NCc3ccccc3)ccc2OC1(C)C` (centres unmarked) [Compound 5-309] registered an IC50 of 2.9 µM. This IC50 is about 1.6-fold lower than that of the molecule before.
`CC1(C)Oc2ccc(NCc3ccccc3)cc2C(OCCc2ccccc2)C1OCc1ccccc1Cl` (centres unmarked) [Compound 5-310] displayed an IC50 of 1.1 µM.
For `CC1(C)Oc2ccc(NCc3ccccc3)cc2C(OCCc2ccccc2)C1OCc1ccccc1Cl` (centres unmarked) [Compound 5-311] the value was 1.19 µM; for `Cc1ccc(COC2C(OCCc3ccccc3)c3cc(NCc4ccccc4)ccc3OC2(C)C)cc1` (centres unmarked) [Compound 5-312], 4.13 µM.
On to `CC1(C)Oc2ccc(NCc3ccccc3)cc2C(OCCc2ccccc2)C1OCc1ccc(Br)cc1F` (centres unmarked) [Compound 5-313], for which the midpoint of inhibition, the IC50, lay at 1.44 µM. This IC50 is about 2.9-fold lower than that of the molecule before.
For the molecule `CC1(C)Oc2ccc(NCc3ccccc3)cc2C(OCCc2ccccc2)C1OCc1cc(C(F)F)cc(C(F)(F)F)c1` (centres unmarked) [Compound 5-315], half-maximal inhibition (IC50) was put at 3.43 µM. This IC50 lies about 2.4-fold higher than the previous one.
`C/C=C/COC1C(OCCc2ccccc2)c2cc(NCc3ccccc3)ccc2OC1(C)C` (centres unmarked) [Compound 5-318] came in with an IC50 of 5.27 µM. This IC50 is about 1.5-fold higher than that of the molecule before.
The value for `C#CCOC1C(OC)c2cc(NCc3ccc(F)cc3)ccc2OC1(C)C` (centres unmarked) [Compound 5-464] was 3.81 µM.
`CCOC1c2cc(NCc3ccc(F)cc3)ccc2OC(C)(C)C1OCc1ccccc1` (centres unmarked) [Compound 5-465] came in with an IC50 of 6.41 µM.
The value for `CCOC1c2cc(NCc3ccc(F)cc3)ccc2OC(C)(C)C1OCc1ccc(F)cc1` (centres unmarked) [Compound 5-466] was 1.2 µM; that for `CCOC1c2cc(NCc3ccc(F)cc3)ccc2OC(C)(C)C1OCc1ccc(C(C)(C)C)cc1` (centres unmarked) [Compound 5-467] was 3.6 µM; that for `CCOC1c2cc(NCc3ccc(F)cc3)ccc2OC(C)(C)C1OCc1cccc(F)c1` (centres unmarked) [Compound 5-468] was 4.27 µM.
The value for `CCOC1c2cc(NCc3ccc(F)cc3)ccc2OC(C)(C)C1OCc1ccccc1C` (centres unmarked) [Compound 5-469] was 4.38 µM; that for `CCOC1c2cc(NCc3ccc(F)cc3)ccc2OC(C)(C)C1OCc1ccccc1Cl` (centres unmarked) [Compound 5-470] was 4.15 µM.
The value for `CCOC1c2cc(NCc3ccc(F)cc3)ccc2OC(C)(C)C1OCc1cccc(Cl)c1` (centres unmarked) [Compound 5-471] was 4.85 µM.
Take `CCOC1c2cc(NCc3ccc(F)cc3)ccc2OC(C)(C)C1OCc1ccc(C)cc1` (centres unmarked) [Compound 5-472]: the IC50 was determined as 3.9 µM.
The molecule `CCOC1c2cc(NCc3ccc(F)cc3)ccc2OC(C)(C)C1OCc1ccc(Br)cc1F` (centres unmarked) [Compound 5-473] showed an IC50 of 2.72 µM.
The value for `CCOC1c2cc(NCc3ccc(F)cc3)ccc2OC(C)(C)C1OCc1ccc2ccccc2c1` (centres unmarked) [Compound 5-474] was 3.45 µM; that for `CCOC1c2cc(NCc3ccc(F)cc3)ccc2OC(C)(C)C1OC` (centres unmarked) [Compound 5-476] was 1.35 µM; that for `CCCCCOC1C(OCC)c2cc(NCc3ccc(F)cc3)ccc2OC1(C)C` (centres unmarked) [Compound 5-477] was 3.63 µM.
The value for `C/C=C/COC1C(OCC)c2cc(NCc3ccc(F)cc3)ccc2OC1(C)C` (centres unmarked) [Compound 5-478] was 6.21 µM.
In turn, `C#CCOC1C(OCC)c2cc(NCc3ccc(F)cc3)ccc2OC1(C)C` (centres unmarked) [Compound 5-480] yielded an IC50 of 5.55 µM. This IC50 and that of the molecule before are within 1.5-fold of each other.
Molecule `Cc1ccccc1COC1C(OC(C)C)c2cc(NCc3ccc(F)cc3)ccc2OC1(C)C` (centres unmarked) [Compound 5-485] yielded an IC50 of 2.66 µM.
The value for `CC(C)OC1c2cc(NCc3ccc(F)cc3)ccc2OC(C)(C)C1OCc1ccccc1Cl` (centres unmarked) [Compound 5-486] was 0.91 µM.
For `CC(C)OC1c2cc(NCc3ccc(F)cc3)ccc2OC(C)(C)C1OCc1ccc2ccccc2c1` (centres unmarked) [Compound 5-490] the value was 2.24 µM.

In general, IC50 refers to the concentration that inhibits the measured activity by half. A lower IC50 goes with greater potency.
